# According to patent US9732065B2, “Cyclic aminomethyl pyrimidine derivative” (Sumitomo Dainippon Pharma Co., Ltd., priority 2013, dated 2017):
# Key:
# [1] = molecular target: T1, Human dopamine D4 receptor (Homo sapiens, UniProt P21917); test: Agonistic/antagonistic activity in G protein dependent pathway (aequorin intracellular calcium luminescence), D4; format: cell-based; set-up: expressed in transfected cells; host or cells: CHO-K1 or HEK293 cells; settings: for inhibition at 0.1 µM / inhibition at 1 µM: against 10 μM endogenous ligand, read-out: Inhibitory activity on each receptor (%): D4; for Emax at 0.1 µM / Emax at 1 µM: read-out: Maximal activity on each receptor (%): D4
# T1 sequence (P21917 1-419): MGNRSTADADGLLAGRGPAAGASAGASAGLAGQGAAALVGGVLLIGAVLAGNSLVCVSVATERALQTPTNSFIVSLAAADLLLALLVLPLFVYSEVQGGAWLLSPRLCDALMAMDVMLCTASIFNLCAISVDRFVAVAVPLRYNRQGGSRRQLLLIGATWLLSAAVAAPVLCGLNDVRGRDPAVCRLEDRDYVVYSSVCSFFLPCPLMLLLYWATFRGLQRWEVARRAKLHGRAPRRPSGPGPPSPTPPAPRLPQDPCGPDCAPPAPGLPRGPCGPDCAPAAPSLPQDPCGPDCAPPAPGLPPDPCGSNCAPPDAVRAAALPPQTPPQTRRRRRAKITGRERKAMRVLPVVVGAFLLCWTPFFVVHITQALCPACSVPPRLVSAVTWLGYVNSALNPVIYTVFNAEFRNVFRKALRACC
# Method: (§1) Plasmids encoding each receptor, aequorin and Gα16 were prepared, and the plasmids were transfected into CHO cells (Chinese Hamster Ovary cells) or HEK293 cells (Human Embryonic Kidney 293 cells) to prepare expressing cell lines.
# (§2) The agonistic or antagonistic activity of the present compound in the G protein dependent pathway was evaluated on the basis of intracellular calcium levels as follows. CHO-K1 or HEK293 cell lines transfected with D2, D4, α1A, or α2A receptor genes were seeded in a 384-well plate, and incubated in a CO2 incubator at 37° C. for 24 hours, and then a solution of the present compound in DMSO was added into cells preloaded with coelenterazine to measure the change in luminescent signals with a FDSS (Hamamatsu Photonics K.K.). […] The agonistic activity of the present compound was calculated according to the measured luminescent signals, as the maximal activity (Emax) of the present compound. On the other hand, the antagonistic activity of the present compound was calculated according to the luminescent signals in wells with 10 μM of an endogenous ligand alone defined as 100%, as the inhibitory activity of the present compound to an endogenous ligand. EC50 value was calculated as the concentration of the present compound required to achieve a 50% response, and IC50 was calculated as the concentration of the present compound required to achieve a 50% inhibition of the Emax of an endogenous ligand.
# [2] = PK study in rat (bioavailability); format: in vivo; settings: plasma, oral vs intravenous administration
# Method: In this study, the pharmacokinetics of the present compound can be evaluated. Specifically, a 7-week-old SD-type or WKY-type rat received the intravenous administration of a solution of the present compound in saline or the oral administration of a suspension of the present compound in carboxymethylcellulose or methylcellulose. Blood was collected from the rat at each time below.
# Intravenous administration: 5 minutes, 15 minutes, 30 minutes, 1 hour, 2 hours, 4 hours, 6 hours, and 24 hours after administration
# Oral administration: 15 minutes, 30 minutes, 1 hour, 2 hours, 4 hours, 6 hours, and 24 hours after administration
# Plasma was collected from the blood, the levels of the present compound in the plasma were measured by a LC-MS method, and then the pharmacokinetic parameters were calculated on the basis of the level changes.
# [3] = molecular target: T1, Human dopamine D4 receptor; test: G protein independent pathway: β-arrestin recruit ability (PathHunter β-galactosidase); format: cell-based; set-up: expressed in transfected cells; settings: β-arrestin recruitment, 90 minutes; 10 μM dopamine = 100%
# Method: The activation of the G protein independent pathway was evaluated on the basis of the recruit ability of β-arrestin as follows. Cell lines transfected with D4 receptor genes were seeded in a 384-well plate, and incubated in a CO2 incubator at 37° C. for 24 hours, a solution of the present compound in DMSO was added into the cells, and then the cells were left at 37° C. for 90 minutes. Buffer containing β-galactosidase reaction substance (PathHunter Cell Assay Buffer, DiscoverRx) was added thereto, and luminescent signals in the wells were measured with a FDSS (Hamamatsu Photonics K.K.). […] The maximal activity (Emax) of the present compound was calculated according to the measured luminescent signals. EC50 value was calculated as the concentration of the present compound required to achieve a 50 response.
# [4] = Brain penetration study in rat; format: in vivo; settings: brain and plasma, unbound brain-to-plasma drug concentration ratio
# Method: In this study, the brain penetration of the present compound can be evaluated. Specifically, a 7-week-old SD-type or WKY-type rat received the subcutaneous administration of a solution of the present compound in saline or the oral administration of a suspension of the present compound in methylcellulose. Plasma and brain were collected from the treated rat 0.5 hour, 1 hour or 2 hours after the administration, and then the levels of the present compound in the plasma and the brain were measured by a LC-MS method.
# The protein binding ratios of the present compound to the plasma and the brain were measured by an equilibrium dialysis method.
# The levels of the present compound in the plasma and the brain as well as the plasma and brain protein binding ratios are applied to the following formula, and thus Kp,uu,brain (Unbound brain-to-plasma drug concentration ratio) can be calculated. Kp,uu,brain=(level of the present compound in the brain×(100−brain protein binding ratio (%))/100)/(level of the present compound in the plasma×(100−plasma protein binding ratio (%))/100)
# [5] = molecular target: T2, human adrenergic α1A receptor (Homo sapiens, UniProt P35348); test: Agonistic/antagonistic activity in G protein dependent pathway (aequorin intracellular calcium luminescence), α1A; format: cell-based; settings: for Maximal activity on each receptor (%): α1A: 10 μM adrenaline = 100%; for inhibition at 0.1 µM / inhibition at 1 µM: against 10 μM endogenous ligand, read-out: Inhibitory activity on each receptor (%): α1A
# T2 construct: expressed in transfected cells; host or cells: CHO-K1 or HEK293 cells
# T2 sequence (P35348 1-466): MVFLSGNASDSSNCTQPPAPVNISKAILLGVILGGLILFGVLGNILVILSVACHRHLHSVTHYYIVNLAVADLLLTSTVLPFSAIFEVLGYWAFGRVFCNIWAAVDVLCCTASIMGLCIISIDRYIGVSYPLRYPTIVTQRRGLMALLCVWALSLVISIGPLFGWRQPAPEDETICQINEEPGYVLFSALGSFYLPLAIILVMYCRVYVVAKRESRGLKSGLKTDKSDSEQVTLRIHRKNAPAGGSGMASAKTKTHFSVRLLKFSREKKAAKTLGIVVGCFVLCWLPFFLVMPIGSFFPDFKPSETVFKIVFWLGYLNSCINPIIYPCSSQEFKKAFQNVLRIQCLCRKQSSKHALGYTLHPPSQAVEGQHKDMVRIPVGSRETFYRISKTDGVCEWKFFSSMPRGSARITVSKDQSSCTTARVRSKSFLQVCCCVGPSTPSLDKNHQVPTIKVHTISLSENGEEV
# Method: as §1, §2
inhibition at 0.1 µM [1] [%],inhibition at 1 µM [1] [%],Emax at 0.1 µM [1] [%],Emax at 1 µM [1] [%],bioavailability [2] [%],Maximal activity on D4 receptor (%) [3] [%],Kp uu [4],Maximal activity on each receptor (%): α1A ([5]; 0.1 μM) [%],inhibition at 0.1 µM ([5]; 0.1 μM) [%],Maximal activity on each receptor (%): α1A ([5]; 1 μM) [%],inhibition at 1 µM ([5]; 1 μM) [%],Structure (SMILES)
58,78,27,64,27.6,6,0.8,0.04,2.7,0.01,2.6,"Cc1ncc(CN2CCC(c3ccccn3)CC2)c(C)n1 [Example 44, 2,4-Dimethyl-5-[4-(pyridin-2-yl)piperidin-1-ylmethyl]pyrimidine]"
72,87,20,35,21.6,9,0.8,0.03,-5.6,0.08,-0.73,"Cc1ncc(CN2CCC(c3cccnc3)CC2)c(C)n1 [Example 45, 2,4-Dimethyl-5-[4-(pyridin-3-yl)piperidin-1-ylmethyl]pyrimidine]"
61,85,14,40,92.2,11,1.8,0.08,-6.4,0.23,-17,"Nc1ncc(CN2CCC(c3cncc(F)c3)CC2)cn1 [Example 46, 5-[4-(5-Fluoropyridin-3-yl)piperidin-1-ylmethyl]pyrimidin-2-amine]"
